Measured values as given in PubChem BioAssay (NCI).
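Briefly, cells in 96-well plates were exposed to five compound concentrations for 48 h, and endpoints were estimated by linear interpolation. Abbreviation: GI50, concentration required for 50% inhibition of growth. The concentration for full growth arrest is given as TGI.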

Experiments:
Experiment in all cases: NCI-60 cell line screen, 48 h
[1] = test system: HOP-62 NSCLC
[2] = test system: M14 melanoma
[3] = test system: SK-OV-3 ovarian
[4] = test system: A549 NSCLC
[5] = test system: SNB-19 CNS
[6] = test system: 786-0 renal
[7] = test system: BT-549 breast
[8] = test system: NCI-H226 lung
[9] = test system: U251 CNS
[10] = test system: HCT-15 colon
[11] = test system: DU-145 prostate
[12] = test system: SNB-75 CNS
[13] = test system: RXF 393 renal
[14] = test system: TK-10 renal
[15] = test system: EKVX NSCLC
[16] = test system: NCI-H460 lung
[17] = test system: HT29 colon
[18] = test system: KM12 colon
[19] = test system: RPMI-8226 leukemia
[20] = test system: K-562 leukemia
[21] = test system: UACC-257 melanoma
[22] = test system: A498 renal
[23] = test system: MCF7 breast
[24] = test system: SF-539 CNS
[25] = test system: OVCAR-8 ovarian
[26] = test system: SN12C renal
[27] = test system: PC-3 prostate
[28] = test system: HCT-116 colon
[29] = test system: HCC-2998 colon
[30] = test system: SK-MEL-28 melanoma
[31] = test system: SK-MEL-5 melanoma
[32] = test system: MDA-MB-231 breast
[33] = test system: MALME-3M melanoma
[34] = test system: HS 578T breast
[35] = test system: MDA-MB-435
[36] = test system: UACC-62 melanoma
[37] = test system: HL-60(TB) leukemia
[38] = test system: ACHN renal
[39] = test system: SF-268 CNS
[40] = test system: NCI-H23 lung
[41] = test system: IGROV1 ovarian
[42] = test system: MOLT-4 leukemia
[43] = test system: SK-MEL-2 melanoma
[44] = test system: NCI/ADR-RES ovarian
[45] = test system: NCI-H522 lung
[46] = test system: UO-31 renal
[47] = test system: SR leukemia
[48] = test system: T-47D breast
[49] = test system: CCRF-CEM leukemia
[50] = test system: CAKI-1 renal
[51] = test system: SW-620 colon
[52] = test system: SF-295 CNS
[53] = test system: OVCAR-5 ovarian
[54] = test system: COLO 205 colon
[55] = test system: HOP-92 NSCLC
[56] = test system: OVCAR-3 ovarian
[57] = test system: LOX IMVI melanoma
[58] = test system: OVCAR-4 ovarian

For `NC(=O)c1c(NC(=O)c2ccccc2C(F)(F)F)sc2c1CCC(=O)C2`, the GI50 [1] was 3.97 µM, the TGI [1] was > 100 µM and the GI50 [2] was 2.76 µM. For the same compound, the TGI [2] was 19.9 µM, the GI50 [3] was 3.47 µM and the TGI [3] was > 100 µM. For the same compound, the GI50 [4] was 3.72 µM, the TGI [4] was > 100 µM and the GI50 [5] was 3.74 µM. The TGI [5] was > 100 µM, the GI50 [6] was 4.29 µM and the TGI [6] was > 100 µM. The GI50 [7] was 0.947 µM, the TGI [7] was 76.5 µM and the GI50 [8] was 1.97 µM. The TGI [8] was 4.53 µM, the GI50 [9] was 0.99 µM and the TGI [9] was 19.1 µM. It also gave a GI50 [10] of 0.493 µM, a TGI [10] of 2.07 µM and a GI50 [11] of 4.54 µM. For the same compound, the TGI [11] was > 100 µM, the GI50 [12] was 1.95 µM and the TGI [12] was 8.2 µM. The GI50 [13] was 1.37 µM, the TGI [13] was 3.83 µM and the GI50 [14] was 3.2 µM. For the same compound, the TGI [14] was > 100 µM, the GI50 [15] was 2.81 µM and the TGI [15] was 12.1 µM. For the same compound, the GI50 [16] was 3.52 µM, the TGI [16] was 16 µM and the GI50 [17] was 1.97 µM. For the same compound, the TGI [17] was 6.65 µM, the GI50 [18] was 3.66 µM and the TGI [18] was 14.6 µM. For the same compound, the GI50 [19] was 0.36 µM, the TGI [19] was > 100 µM and the GI50 [20] was 0.412 µM. The TGI [20] was > 100 µM, the GI50 [21] was 2.48 µM and the TGI [21] was 7.38 µM. For the same compound, the GI50 [22] was 9.93 µM, the TGI [22] was 40.3 µM and the GI50 [23] was 2.24 µM. For the same compound, the TGI [23] was 9.87 µM, the GI50 [24] was 0.605 µM and the TGI [24] was 2.09 µM. For the same compound, the GI50 [25] was 2.6 µM, the TGI [25] was > 100 µM and the GI50 [26] was 2.59 µM. It also gave a TGI [26] of 12.6 µM, a GI50 [27] of 0.307 µM and a TGI [27] of 4.43 µM. It also gave a GI50 [28] of 0.493 µM, a TGI [28] of 8.14 µM and a GI50 [29] of 2.88 µM. For the same compound, the TGI [29] was 12.3 µM, the GI50 [30] was 1.89 µM and the TGI [30] was 5.5 µM. For the same compound, the GI50 [31] was 1.78 µM, the TGI [31] was 3.45 µM and the GI50 [32] was 1.95 µM. The TGI [32] was 4.3 µM, the GI50 [33] was 2 µM and the TGI [33] was 5.25 µM. The GI50 [34] was 3.04 µM, the TGI [34] was > 100 µM and the GI50 [35] was 2.94 µM. For the same compound, the TGI [35] was 8.7 µM, the GI50 [36] was 1.29 µM and the TGI [36] was 3.19 µM. The GI50 [37] was 1.1 µM, the TGI [37] was 7.37 µM and the GI50 [38] was 1.01 µM. For the same compound, the TGI [38] was 2.66 µM, the GI50 [39] was 3.6 µM and the TGI [39] was > 100 µM. For the same compound, the GI50 [40] was 1.34 µM, the TGI [40] was 5.63 µM and the GI50 [41] was 2.46 µM. The TGI [41] was 9.48 µM, the GI50 [42] was 2.02 µM and the TGI [42] was 22.3 µM. For the same compound, the GI50 [43] was 2.5 µM, the TGI [43] was 6.84 µM and the GI50 [44] was 2.33 µM. For the same compound, the TGI [44] was 18.3 µM, the GI50 [45] was 0.391 µM and the TGI [45] was 1.92 µM. For the same compound, the GI50 [46] was 1.12 µM, the TGI [46] was 2.33 µM and the GI50 [47] was 0.466 µM. The TGI [47] was > 100 µM, the GI50 [48] was 0.492 µM and the TGI [48] was 5.71 µM. The GI50 [49] was 0.429 µM, the TGI [49] was > 100 µM and the GI50 [50] was 1.39 µM. It also gave a TGI [50] of 3.05 µM, a GI50 [51] of 0.402 µM and a TGI [51] of 13.8 µM. For the same compound, the GI50 [52] was 2.55 µM and the TGI [52] was 7.71 µM.

With `CCN1C(=O)N(CC)C2SC(N/N=C/c3ccc(F)cc3)=NC21` (stereo not drawn) the GI50 [1] was 0.556 µM, the TGI [1] was > 100 µM and the GI50 [2] was 0.296 µM. The TGI [2] was 14.4 µM, the GI50 [53] was 0.89 µM and the TGI [53] was > 100 µM. The GI50 [54] was 0.308 µM, the TGI [54] was 1.1 µM and the GI50 [3] was 0.662 µM. The TGI [3] was > 100 µM, the GI50 [4] was 0.611 µM and the TGI [4] was > 100 µM. For the same compound, the GI50 [5] was 0.504 µM, the TGI [5] was > 100 µM and the GI50 [6] was 0.628 µM. The TGI [6] was 30.1 µM, the GI50 [7] was 0.496 µM and the TGI [7] was 2.87 µM. For the same compound, the GI50 [8] was 0.942 µM, the TGI [8] was > 100 µM and the GI50 [9] was 0.406 µM. The TGI [9] was > 74.3 µM, the GI50 [55] was 1.16 µM and the TGI [55] was > 23.3 µM. The GI50 [10] was 0.429 µM, the TGI [10] was > 100 µM and the GI50 [11] was 0.498 µM. The TGI [11] was > 100 µM, the GI50 [12] was 0.252 µM and the GI50 [14] was 5.2 µM. For the same compound, the TGI [14] was > 100 µM, the GI50 [15] was 0.695 µM and the TGI [15] was > 100 µM. The GI50 [16] was 0.362 µM, the GI50 [17] was 0.354 µM and the TGI [17] was 4.46 µM. The GI50 [18] was 0.415 µM, the TGI [18] was > 62.2 µM and the GI50 [56] was 0.37 µM. For the same compound, the TGI [56] was 2.04 µM, the GI50 [19] was 0.373 µM and the TGI [19] was > 100 µM. For the same compound, the GI50 [20] was 0.361 µM, the TGI [20] was > 100 µM and the GI50 [21] was 1.26 µM. The TGI [21] was > 100 µM, the GI50 [22] was 0.295 µM and the TGI [22] was 0.86 µM. For the same compound, the GI50 [23] was 0.369 µM, the TGI [23] was > 100 µM and the GI50 [24] was 0.321 µM. The TGI [24] was 1.43 µM, the GI50 [25] was 0.495 µM and the TGI [25] was > 24 µM. The GI50 [26] was 0.617 µM, the TGI [26] was > 100 µM and the GI50 [27] was 0.436 µM. For the same compound, the TGI [27] was > 52.3 µM, the GI50 [28] was 0.404 µM and the TGI [28] was > 33.9 µM. The GI50 [29] was 0.823 µM, the TGI [29] was > 100 µM and the GI50 [30] was > 30 µM. The TGI [30] was > 100 µM, the GI50 [31] was 0.601 µM and the TGI [31] was > 42.2 µM. For the same compound, the GI50 [32] was 0.955 µM, the TGI [32] was > 100 µM and the GI50 [33] was 0.66 µM. For the same compound, the TGI [33] was > 100 µM, the GI50 [34] was 0.363 µM and the GI50 [35] was 0.174 µM. The TGI [35] was 0.408 µM, the GI50 [36] was 0.437 µM and the TGI [36] was > 100 µM. The GI50 [37] was 0.268 µM, the TGI [37] was 0.927 µM and the GI50 [38] was 0.728 µM. The TGI [38] was > 100 µM, the GI50 [39] was 2.62 µM and the TGI [39] was > 100 µM. For the same compound, the GI50 [40] was 0.539 µM, the TGI [40] was > 100 µM and the GI50 [41] was 0.765 µM. The TGI [41] was > 100 µM, the GI50 [42] was 0.479 µM and the TGI [42] was > 100 µM. For the same compound, the GI50 [43] was 0.507 µM, the TGI [43] was > 100 µM and the GI50 [44] was 0.428 µM. The TGI [44] was > 100 µM, the GI50 [45] was 0.25 µM and the TGI [45] was 0.762 µM. The GI50 [46] was 0.631 µM, the TGI [46] was > 100 µM and the GI50 [47] was 0.221 µM. The TGI [47] was > 100 µM, the GI50 [57] was 0.596 µM and the TGI [57] was > 100 µM. For the same compound, the GI50 [58] was 22.4 µM, the TGI [58] was > 100 µM and the GI50 [49] was 0.413 µM. The TGI [49] was > 100 µM, the GI50 [50] was 0.435 µM and the TGI [50] was > 100 µM. For the same compound, the GI50 [51] was 0.374 µM, the TGI [51] was > 100 µM and the GI50 [52] was 0.348 µM. The TGI [52] was > 100 µM.
